Measurements as given in patent US10888588B2, “Directed cardiomyocyte differentiation and ventricular specification of stem cells” (ICAHN SCHOOL OF MEDICINE AT MOUNT SINAI, priority 2013, dated 2021).

Key:
hESC-VCMs = assay: Patch-clamp AP recording and confocal Ca2+ imaging of hESC-VCMs; type: cell-based, human
Procedure: The electrophysiological experiments disclosed in the Examples were performed using the whole-cell patch-clamp technique as previously described.^65-67 To profile chamber-specific subtypes of the hPSC-CMs, action potentials of the myocytes were randomly probed at 37° C. with the patch-clamp technique using an EPC-10 amplifier and Pulse software (Heka Elektronik, Germany), with the current-clamp mode (0.1-0.5 nA for 1-5 ms) under the whole-cell configuration applied. The hPSC-CMs were categorized into nodal-, atrial- or ventricular-like, as previously described.^62,65,66 Voltage-clamp recordings of ionic currents were performed using an automated parallel patch-clamp system (PatchXpress 7000A, Molecular Devices) using standard electrophysiological and pharmacological protocols for isolating the ionic component of interest.
Intracellular Ca^2+ ([Ca^2+]i) transients were imaged by a spinning disc laser confocal microscope (PerkinElmer) on hPSC-CMs loaded with 1.5 μM X-Rhod-1 (Invitrogen) as previously described^66. After dye loading, experiments were performed at 37° C. in Tyrode's solution containing: 140 mM NaCl, 5 mM KCl, 1 mM MgCl2, 1.25 mM CaCl2, 10 mM HEPES and 10 mM D-glucose at pH 7.4. […] The amplitudes of E[Ca^2+]i are presented as the background corrected pseudo ratio (ΔF/F)=(F−Fbase)/(Fbase−B) where Fbase and F is the measured fluorescence intensity before and after stimulation, respectively, and B is the average background signal from areas adjacent to the targeted cell. The transients rise (Vupstroke) and the transients decay (Vdecay) were subsequently calculated and analyzed.
Initially, electrophysiological profiles were obtained and analyzed from patch-clamp recordings and Ca^2+-imaging performed on 30- to 50-day-old single cells isolated from cardiogenic EBs.

Wnt/β-catenin pathway = assay: Directed differentiation to ventricular cardiomyocytes with Wnt inhibition; type: cell-based, human
Source text: (§1) As detailed in the following examples, cardiac differentiation was initiated by formation of embryoid bodies (EBs) in suspension culture from hESCs as exemplary stem cells, maintained in feeder-free, serum-free culture. […] In the first phase of the differentiation process (Stage 1; days 2-4.5), the cells were differentiated into primitive streak-mesendoderm and subsequently to cardiac mesoderm by the combinatorial activation of the BMP and Nodal signaling pathways. In the second phase (Stage 2; days 4.5-8) the inhibition of the Wnt/β-catenin pathway by the small molecule IWR-1^29 enhanced the differentiation of the cardiac progenitors to the ventricular cardiomyocyte lineage.
For directed cell differentiation, undifferentiated hPSCs were digested into smaller clusters using Dispase (STEMCELL Technologies; 1 mg/ml for 8 minutes at 37° C.) and seeded onto Matrigel™-coated plates at 3×10^4 cells/ml in mTeSR™ 1 medium for 4 days until there was about 80-90% confluence on D0. To initiate cardiac differentiation, hPSCs were digested into single cell suspensions using Accutase (Invitrogen) and cultured in mTeSR™ 1 medium with Matrigel™ (40 μg/ml) with BMP-4 (1 ng/ml, Invitrogen) and Rho kinase inhibitor (ROCK) Inhibitor (10 μM; R&D) under a hypoxic condition with 5% O2. […] Cardiac mesodermal cells developed into functional contracting clusters could be detected as early as day 8. […]

hPSC = conditions: cited from earlier work
HES2-VCMs = conditions: H2O2 100 μM, 30 minutes, 37° C.; ratio before stress 1.146
Procedure: Mitochondrial membrane potential in HES2-VCMs was measured with the potential-sensitive dye JC-1 (Invitrogen). LV-MLC2v-Tdtomato-T2A-Zeo transduced and Zeo-selected HES2-VCMs (30- to 50-day-old) were incubated at 37° C. with 0.5 μM JC-1 in serum free DMEM medium for 15 minutes. To simulate metabolic oxidative stress, hES2-VCMs were treated with hydrogen peroxide (H2O2; 100 μM) for 30 minutes at 37° C., after which JC-1 orange and green fluorescence intensities were measured for mitochondrial membrane potential with a LSM Carl Zeiss 510 Meta microscope.

hESCs = assay: Embryoid body formation from dissociated hESCs; type: cell-based, human; conditions: EB formation in suspension culture
Source text: as §1

In the case of `CC(C)NCC(O)c1ccc(O)c(O)c1` (stereo not shown) [isoproterenol], the “chronotropic response (spontaneous AP and Ca2+ transient firings)” value (hESC-VCMs; 30- to 50-day-old single cells, β-adrenergic stimulation) is reported as “positive chronotropic response” and the “Ca2+ transient amplitude (ionotropic response)” value (hESC-VCMs; β-adrenergic stimulation, p>0.05) is reported as “remained unchanged”.

With `O=C(Nc1cccc2cccnc12)c1ccc(N2C(=O)[C@@H]3[C@H](C2=O)[C@@H]2C=C[C@H]3C2)cc1` [IWR-1] the “differentiation of cardiac progenitors to the ventricular cardiomyocyte lineage” value (Wnt/β-catenin pathway; Stage 2, days 4.5-8) was “enhanced” and the “heterogeneity of the hESC-derived cardiomyocytes” value (Wnt/β-catenin pathway; timely inhibition of Wnt/β-catenin pathway) was “reduced”.

In the case of `COc1ccc(CCC(=O)Nc2nc3ccc(Cl)cc3s2)cc1OC` [KY02111], the “hPSC-CM per hPSC” value (hPSC; about 4.2×10^6 hPSC-CM from about 6×10^6 seeded per well) is given as 0.7 hPSC-CM per hPSC and the “yield of CM from hPSC differentiation” value (hPSC; serum- and xeno-free, four hiPSC lines, by inhibiting WNT signaling) is given as “up to 98%”.

For `Cn1c(=O)c2c(ncn2C)n(C)c1=O` [caffeine], the “caffeine-induced Ca2+ flux (functional sarcoplasmic reticulum)” value (hESC-VCMs) was “observed”.

For `OO` [H2O2, hydrogen peroxide], the “JC-1 orange/green intensity ratio” value (HES2-VCMs) was 0.410.

With `Cc1ccc2c(c1)C(=O)C1(O)CCN(c3ccccc3)C1=N2` (stereo not shown) [blebbistatin] the EB formation efficiency (hESCs) was “significantly increased” and the “dissociation-induced apoptosis of hESCs” value (hESCs) was “inhibited”.
